Source: patent publication US20240082342A1, “PEPTIDE THERAPEUTICS FOR INCREASING LUNG CELL VIABILITY” (BOARD OF REGENTS, THE UNIVERSITY OF TEXAS SYSTEM, priority 2018, published 2024)
Entries after “also recorded” stand apart in the source; their conditions may differ.

Legend:
AECs from COPD lungs = AECs from COPD lungs treated in vitro for 48 h; type: cell-based, human
Experimental: Primary Airway Epithelial Cells (AECs); Normal, Human (ATCC® PCS-301-010™) and Primary Airway Epithelial Cells; COPD (ATCC® PCS-301-013™) were obtained from the ATCC and cultured in Airway Cell Basal Medium with glutamine, Extract P, HLL Supplement, and AEC Supplement. containing and 1% penicillin-streptomycin. The cells were maintained at 37° C. in a humidified atmosphere at 5% CO2. All media, supplements, and antibiotics were purchased from ATCC.
CSP7 and CP were dissolved in DMSO and diluted in HBSS for working concentration of 300 µg/2 ml. These peptides were used for the treatment of COPD in vitro and IP injection of mice. For nasal insufflation, the peptides were formulated as follows: 0.579 mg/ml of CSP7/CP was added to 15.456 mg/ml of lactose monohydrate in phosphate buffered saline and the pH was adjusted to 8.4 to give a clear solution. The solution was filtered through a 0.22-micron syringe filter (Bhandary et al. supra; Tiwari et al., supra).
The cells were lysed with RIPA buffer (Pierce, USA) containing protease inhibitor cocktail (Roche, Germany) and phosphatase inhibitor cocktail (Sigma-Aldrich, USA) on ice for 30 min. After centrifugation at 12,000×g and 4° C. for 20 min, the supernatants were collected. The protein concentrations were determined using the BCA protein assay kit (Pierce, USA). Cell lysates were mixed with 5×SDS-PAGE sample buffer and boiled for 5 min. Thirty micrograms of protein was subjected to 10% SDS-PAGE electrophoresis and transferred to nitrocellulose membranes. The membranes were blocked with 5% milk and then incubated at 4° C. for 16 h with the following diluted primary antibodies (Tiwari et al., supra). The blots were then washed and probed with horseradish peroxidase-conjugated secondary IgG antibodies. The bound antibodies were visualized using SuperSignal™ Maximum Sensitivity Substrate (Thermo Fisher Scientific, USA). For normalization, the membranes were stripped with Restore Western blot stripping buffer and incubated with the following primary antibodies: anti-ERK (1:1000), anti-MUC5AC (1:1000), anti-HDAC6(1:1000), anti-SPDEF(1:1000), anti-FOXA2(1:1000), anti-FOXA3 (1:1000) anti-LC3(1:1000), anti-Beclin1(1:1000), anti-p62(1:1000), anti-p53(1:1000), anti-PAI-1(1:1000) and anti-GAPDH (1:1000).
Cell culture. Primary human AECs from histologically normal and COPD lungs were purchased from ATCC. These cells were cultured in AEC Basal Medium with glutamine, extract P, HLL Supplement, and AEC supplement and 1% penicillin-streptomycin at 37° C. and 5% CO2. AT2 cells were isolated from C57BL/6 mice following the method of Corti and colleagues (Roscioli et al, 2018) with minor modifications. The cells were plated on plastic culture dishes precoated with anti-CD-32 and anti-CD-45 antibodies for 2 h at […]. Non-adherent cells were collected, and the purity of AT2 cell preparations was assessed by […] for inclusion bodies (Shetty et al, 2012).
Peptide preparation. CSP7 and CP were dissolved in DMSO and diluted in HBSS as described elsewhere (Marudamuthu et al., SciTransl Med 11: eaat2848, 2019. doi: 10.1126/scitranslmed.aat2848). These peptides were used to treat AECs in vitro or IP injection of CS-exposed mice. For airway delivery by liquid nebulization, CSP7 (0.579 mg/ml) was added to PBS containing lactose monohydrate (15.456 mg/ml). The pH was adjusted to 8.4 to give a clear solution, filtered through a 0.22-micron syringe filter as described earlier (Marudamuthu et al., 2019.)
Protein extraction and Western blot assay. AEC and AT2 cell lysates were prepared using RIPA buffer (Pierce, USA) containing a protease inhibitor cocktail (Roche, Germany) and phosphatase inhibitor cocktail (Sigma-Aldrich, USA). AEC and AT2 cell lysates were subjected to Western blotting using ERK, MUC5AC, HDAC6, SPDEF, FOXA2, FOXA3, LC3, p53, PAI-1, Acp53, S15p53, cleaved caspase-3, β-galactosidase and R-actin antibodies at 1:500-1:1000 dilution (Table 1). […]

[1] = tested on: AECs from nL overexpressing CAV1, p53 or PAI-1; experiment: AECs transduced with Ad-CAV1, Ad-p53 or Ad-PAI-1; type: cell-based, human
Experimental: Expression of CAV1, p53, or PAI-1 in AECs. AECs isolated from nL were separately transduced with Ad-CAV1 or Ad-p53 or Ad-PAI-1. AECs transduced with Ad-Ev were used as controls. In a separate experiment, AECs from nL in culture dishes were treated with Lv-p53 or Lv-PAI-1 shRNA to suppress its baseline expression before treating these cells with CSE. Naive AECs and AECs exposed to non-specific control shRNA was used as controls.

Substance | Beclin-1 and ATG5 expression (AECs from COPD lungs) | ERK phosphorylation (AECs from COPD lungs) | FOXA2, acetylated alpha-tubulin, CAV1, p53 and PAI-1 proteins (AECs from COPD lungs) | LC3-II accumulation (AECs from COPD lungs) | MMP12 expression (AECs from COPD lungs) | PP2A and CIP2A protein (Western blot) (AECs from COPD lungs) | PP2A mRNA (AECs from COPD lungs) | p62 expression (AECs from COPD lungs) | MUC5AC, HDAC6, PAI-1, p53, Cav1, FOXA3, SPDEF, LC3, FOXA2, Ac-Tub proteins (Western blot) (AECs from COPD lungs; 48 h) | MUC5AC, HDAC6, FOXA3, LC3, FOXA2, acetylated alpha-tubulin; mucus hypersecretion and cilia disassembly ([1]; Ad-CAV1 transduced AECs) | p53 and PAI-1 expression ([1]; Ad-CAV1 transduced AECs) | MUC5AC, HDAC6, FOXA3, p53, LC3, acetylated alpha-tubulin ([1]; Ad-PAI-1 transduced AECs) | MUC5AC, acetylated alpha-tubulin, FOXA2, CAV1, p53, PAI-1 ([1]; Ad-p53 transduced AECs)
FTTFTVT (listed as Homo sapiens) [CSP7, heptapeptide fragment of the caveolin-1 scaffolding domain peptide CSP] | mitigate | decrease in ERK phosphorylation; also recorded: reversed in AECs exposed to CSP7 | restoration of FOXA2 and acetylated alpha-tubulin, and inhibition of CAV1, p53 and PAI-1 | reversed | decreased; also recorded: markedly reduced the MMP12 level | reversed | improved | significantly elevated | reversed; also recorded: reduced the expression of MUC5AC, HDAC6, FOXA3, SPDEF and, LC3 | can mitigate the mucus hypersecretion and cilia disassembly; also recorded: reduced CAV1-induced MUC5AC, HDAC6, FOXA3, and LC3 while restoring FOXA2 and acetylated alpha-tubulin | reduced the expression of p53 and PAI-1 | reversed | reduced MUC5AC and restored acetylated alpha-tubulin and FOXA2, while inhibiting CAV1, p53, and PAI-1
WGIDKAFFTTSTVTYKWFRY [CP, scrambled control peptide with the same amino acid composition as CSP, reference compound] |  | still showed elevated phospho-ERK1/2 |  |  |  |  |  |  |  |  |  |  | 
